The structures appear in SMILES notation.

One experiment has as its target T1, Renilla luciferase (Renilla reniformis, UniProt P27652).
T1 sequence (P27652 1-311): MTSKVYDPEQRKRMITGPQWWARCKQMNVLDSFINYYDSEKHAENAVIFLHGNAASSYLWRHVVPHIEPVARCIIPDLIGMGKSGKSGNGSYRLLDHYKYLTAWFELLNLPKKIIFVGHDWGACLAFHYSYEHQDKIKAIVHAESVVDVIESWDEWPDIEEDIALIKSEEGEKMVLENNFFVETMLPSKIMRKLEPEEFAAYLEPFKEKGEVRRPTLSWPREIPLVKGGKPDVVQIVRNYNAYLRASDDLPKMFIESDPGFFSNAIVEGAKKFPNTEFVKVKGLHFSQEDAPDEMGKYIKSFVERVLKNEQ
The experiment can be described thus: biochemical. Type of experiment: biochemical.

A further experiment has as its target firefly luciferase (Photinus pyralis, UniProt P08659). The experiment can be described thus: biochemical. Particulars: 0.5% detergent in Luciferase Assay Reagent; read-out: Retained Firefly Luciferase Luminescence (%). The protocol:
The retained luminescence for each luciferase was calculated by dividing the luminescence in the presence of the detergent by the luminescence in the absence of the test detergent. The selectivity value for each of the test detergents was determined by dividing the retained firefly luciferase luminescence by the retained Renilla luciferase luminescence.
A set of detergents (Table 2; Sigma-Aldrich) was added at 0.5% (from a 5% or 10% stock solution) to either Luciferase Assay Reagent (Promega) or Renilla Luciferase Assay Reagent (Promega) and allowed to equilibrate at room temperature.
The firefly luciferase and Renilla luciferase enzymes were diluted as follows. Firefly luciferase was diluted to 14 ng/ml in Phosphate Buffered Saline (PBS) containing 0.1% of the protein carrier Prionex® (Pentapharm). Renilla luciferase was diluted to 10 ng/ml in 1× Renilla Luciferase Lysis Buffer (Promega) containing 0.1% Prionex®. The Renilla Luciferase Lysis Buffer […] detergent micelles when using the Renilla Luciferase Assay Reagent. In the absence of other detergents, this prevents sequestering of coelenterazine which inhibits Renilla luciferase-mediated luminescence.
The luciferase reactions were initiated by adding 40 μl of either the firefly or Renilla luciferase enzyme solution to 200 μl of the appropriate reagent solution (firefly luciferase enzyme solution+firefly luciferase reagent solution or Renilla luciferase enzyme solution+Renilla luciferase reagent solution, respectively). The reactions were performed in an opaque white, 96-well plate and luminescence was measured for 0.5 seconds per well using a Turner BioSystems Veritas™ Microplate luminometer. The retained firefly luciferase and Renilla luciferase luminescence, as well as the selectivity values for each detergent, were calculated (Table 2).

Sequence of firefly luciferase (P08659 whole entry): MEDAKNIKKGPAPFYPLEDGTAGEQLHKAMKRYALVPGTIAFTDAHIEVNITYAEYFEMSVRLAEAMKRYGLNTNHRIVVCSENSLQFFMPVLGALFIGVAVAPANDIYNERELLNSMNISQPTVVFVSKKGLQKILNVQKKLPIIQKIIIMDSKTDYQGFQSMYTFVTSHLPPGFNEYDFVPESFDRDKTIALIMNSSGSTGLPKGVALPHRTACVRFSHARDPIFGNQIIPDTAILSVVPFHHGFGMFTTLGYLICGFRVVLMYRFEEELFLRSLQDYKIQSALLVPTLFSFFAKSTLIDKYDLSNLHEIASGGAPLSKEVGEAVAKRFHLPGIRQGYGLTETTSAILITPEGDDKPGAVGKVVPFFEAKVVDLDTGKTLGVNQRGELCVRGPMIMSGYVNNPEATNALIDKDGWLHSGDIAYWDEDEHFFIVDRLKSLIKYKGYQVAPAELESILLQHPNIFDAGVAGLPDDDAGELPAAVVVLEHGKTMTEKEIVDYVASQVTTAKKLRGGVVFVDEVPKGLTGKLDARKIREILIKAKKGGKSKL

In the case of `CCCCCCCCCCCC[N+](C)(C)Cc1ccccc1.[Br-]` [Benzyldimethyldodecylammonium bromide], the remaining activity at 0.5 % on Renilla luciferase (0.5% detergent in Renilla Luciferase Assay Reagent, read-out: Retained Renilla Luciferase Luminescence (%)) stood at 0.08%; at firefly luciferase, 20.7%. Besides, the “Selectivity Value” on Renilla luciferase (retained firefly / retained Renilla, 0.5% detergent) is 259.9.
